Laboratory results published in US9107959B2, “Method for site-specific polyvalent display on polymers” (priority 2006, dated 2015).

Experiment: Cyclic voltammetry (electrochemical analyses)
Assay type: physicochemical
Settings: 0.5 mM in water, NaCl 50 mM
Experimental: Ethynylferrocene (1.05 mg, 5.0 μmol) was dissolved in 10 mL HPLC grade water. NaCl (29.22 mg, 0.5 mmol) was added to the solution as a supporting electrolyte. Similarly, solutions of 10 mL water, 6.3 mg (5.0 μmol) peptoid 13 or 4.8 mg (5.0 μmol) peptoid 14 and 29.22 mg (0.5 mmol) NaCl were prepared. The following techniques were performed identically on 0.5 mM ethynylferrocene (50 mM NaCl), 0.5 mM 13 (50 mM NaCl) or 0.5 mM 14 (50 mM NaCl). Approximately 4 mL of solution was transferred to an electrochemical cell and subjected to cyclic voltammetry (CV) experiments. Cyclic voltammetry was conducted using a CH Instruments 600A Electrochemical Analyzer and CV curves were generated using software developed by CH Instruments. Current (μA) versus Potential (V) was measured across a freshly polished CHI104 3 mm diameter glassy carbon disk working electrode (CH Instruments) with a Ag/AgCl (3 M KCl) reference electrode (CH Instruments) and a Pt wire […] (scan rate=9.0 mV s^−1).
To test the effect of triazole conjugation on ferrocene redox properties, compound 13 was purified to >96% as determined by RP-HPLC and the electrochemical behavior of ethynylferrocene and 13 were compared using cyclic voltammetry (CV). Additionally, the influence of the estradiol group on the redox potential of the neighboring ferrocene moiety was evaluated by comparing the electrochemical characteristics of 13 with its azido-functionalized precursor 14. CV experiments were carried out at room temperature using previously described methods (Casas-Solvas et al., Org. Lett. 2004, 6, 3687). CV was performed on solutions of ethynylferrocene (0.5 mM), 13 (0.5 mM) or 14 (0.5 mM) prepared in water with NaCl (50 mM) as a supporting electrolyte, using a Ag/AgCl (KCl 3 M) reference electrode, a freshly polished glassy carbon working electrode, and a Pt wire counter electrode with a scan rate of 9.0 mV s^−1. The values of the formal redox potential)(E^o) and the half-peak potential (Ep/2) of ethynylferrocene, 13 and 14 are shown in Table 1. […]

[1] = glassy carbon working electrode, Ag/AgCl reference, scan rate 9.0 mV s^-1

Substance: Ethynylferrocene
- Redox behaviour in cyclic voltammograms (ferrocene/ferrocenium) (FIG. 5): reversible redox couples
- Ep/2 (half-peak potential) [1]: 0.525 V
- E° (formal redox potential) [1]: 0.512 V
